The record followed here is patent US20100093637A1, “PEPTIDES AND USE THEREOF” (priority 2005, published 2010).

The assay relates to Human fibroblasts. The assay is described as follows: Stimulation of collagen synthesis measured by incorporation of tritiated proline in fibroblast collagenic fractions. In kind it is cell-based. The following applies: 72 hours of treatment. The procedure: The stimulation of collagen synthesis by peptides of the present invention was evaluated by measuring the incorporation of tritiated proline in fibroblasts collagenic fractions. The assay was conducted as follows. Human fibroblasts (obtained from the human biopsy of a person) were seeded in 24-well plates at approximately 40,000 cells per well in 1 ml of culture medium. The culture medium contained DMEM (Invitrogen S.a.r.l., Cergy Pontoise, France) supplemented with 10% Fetal Calf Serum (FCS, Cambrex Bio Science Paris S.a.r.l., Emerainville, France), 1% Glutamax (Invitrogen S.a.r.l.), 4 μg/ml gentamicine (Invitrogen S.a.r.l.), and 2.5 μg/ml Fungizone (Invitrogen S.a.r.l.). Cells were placed at 37° C. under 5% CO2 in a humidified atmosphere for 72 hours.
The culture medium was the removed and replaced with 1 ml of either: (i) incubation medium alone (untreated control); (ii) incubation medium further containing 1 ng/ml TGFb1 (R&D Systems Europe, Lille, France) for use as a stimulated positive control; or (iii) incubation medium further containing one of the tested peptides at a concentration of 1 μg/ml or 10 μg/ml. The incubation medium contained DMEM supplemented with 2% FCS, 1% Glutamax, 4 μg/ml gentamicine, 2.5 μg/ml Fungizone, 50 μg/ml ascorbic acid, 50 μg/ml b-aminoproionitrile, and 3.4 μg/ml a ketoglutarate.
During the last 24 hours of incubation, five μCi of tritiated proline (L-2,3-3H proline, Amersham Biosciences Europe, Saclay, France) was also added to each well. Each condition (untreated control, positive control and tested peptide) was performed in triplicate. In order to normalize the results, the same experiment was performed in parallel, except that tritiated proline was omitted. At the end of the treatment, cells were counted with a coulter counter. After 72 hours of treatment, incubation medium (supernatants) were collected in 2 ml microtubes and frozen at −20° C.
In order to perform the collagen extraction, 1 ml of cold 20% TCA (Sigma-Aldrich, Lyon, France) was added to 1 ml of supernatant. The samples were then vortexed, incubated for 5 minutes (min) at −20° C., and let stand on ice for 30 min. The samples were then centrifuged (2300 g, 5 min, 4° C.). The supernatants were then eliminated, and the pellets were rinsed with 1 ml of cold 5% TCA, vortexed, and centrifuged (2300 g, 5 min, 4° C.). The pellets were then rinsed twice with 5% TCA following the same procedure as described above. The pellets were then dissolved in 0.3 ml of 0.05 N NaOH and neutralized with 0.1N HCl to reach pH 6-8. Then, 0.2 ml of protein solution was incubated for 2 hours at 37° C. in 2×Tris HCl Buffer containing 10 units of collagenase activity (Clostridium hystolyticum Type III collagenase, Sigma-Aldrich, Lyon, France).
The enzymatic reaction was then stopped by precipitation with 500 μl of 15% TCA and 500 μl of 0.75% tannic acid. Samples were then incubated 30 min on ice. The precipitates were then centrifuged (2300 g, 5 min, 4° C.). The supernatants containing collagen fractions were collected, and scintillation liquid (Ecolume ICN) was added to each sample (5 ml to 100 μl sample). Then, radioactivity was measured in a β-scintillation counter.
The rate of collagen synthesis was calculated as follows: Synthesis rate=(number of dpm/cell number)*1000
The percentage of stimulation was calculated as follows: % of stimulation=[(synthesis rate in sample-synthesis rate in control)/(synthesis rate in control)]*100.

[1] abbreviates: peptide at 1 ug/ml in incubation medium.
[2] abbreviates: peptide at 10 ug/ml in incubation medium.

As for “H2-Thr-Arg-Asn-Asp-Lys-Leu-OH (H-TRNDKL-OH) [Peptide 2]”, the “Percent stimulation vs. control” value under setting [1] stood at 23.5%; the “Percent stimulation vs. control” value (peptide at 1 ug/ml in incubation medium, listed as TRNDKL) was found to be 25%; the “Percent stimulation vs. control” value under setting [2] was 42.6%; the “Percent stimulation vs. control” value (peptide at 10 ug/ml in incubation medium, listed as TRNDKL) stood at 42%.

On to “H2-Val-Arg-Phe-Thr-Arg-Asn-OH (H-VRFTRN-OH) [Peptide 1]”, for which the “Percent stimulation vs. control” value under setting [1] stood at 14.8%; the “Percent stimulation vs. control” value (peptide at 1 ug/ml in incubation medium, listed as VFTRN) stood at 15%; the “Percent stimulation vs. control” value under setting [2] came to 43.1%; the “Percent stimulation vs. control” value (peptide at 10 ug/ml in incubation medium, listed as VFTRN) stood at 43%.

“TGF b: potent stimulator of collagen synthesis in dermal fibroblast used as positive control [reference compound]”: the “Percent stimulation vs. control” value runs as follows: (1 ng/ml in incubation medium, positive control) 45.7%; (1 ng/ml in incubation medium, positive control, listed as TGFb) 45%.
